Series [1] deals with T1, Y2 receptor (Homo sapiens, UniProt P49146).
T1 construct: host or cells: ACTOne HEK-293 cells
T1 sequence (P49146 1-381): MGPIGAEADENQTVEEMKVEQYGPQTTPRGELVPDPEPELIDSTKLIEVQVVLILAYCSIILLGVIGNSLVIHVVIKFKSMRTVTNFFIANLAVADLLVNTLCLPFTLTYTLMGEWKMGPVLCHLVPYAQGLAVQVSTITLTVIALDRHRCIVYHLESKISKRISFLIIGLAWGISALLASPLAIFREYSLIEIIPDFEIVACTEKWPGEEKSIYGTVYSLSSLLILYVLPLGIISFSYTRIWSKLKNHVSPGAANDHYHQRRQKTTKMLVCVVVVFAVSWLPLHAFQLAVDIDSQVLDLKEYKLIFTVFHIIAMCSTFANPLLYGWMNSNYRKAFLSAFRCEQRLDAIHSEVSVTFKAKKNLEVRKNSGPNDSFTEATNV
As to the kind of experiment: Y2 receptor ACTOne based FLIPR assay (cAMP biosensor). Type of series: cell-based.

A further series has as its target T2, Y4 receptor (Homo sapiens, UniProt P50391).
T2 construct: host or cells: ACTOne HEK-293 cells
Briefly: Y4 receptor ACTOne based FLIPR assay (cAMP biosensor). The class given is cell-based.

The next series in a line: in vivo. As to conditions: Göttingen, minipig, iv. Summed up: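 Catheterised mini-pigs received compound i.v. at 10 nmol/kg in pH 4.0 phosphate/NaCl/tween vehicle, or alternatively i.v. or s.c. at 1–30 nmol/kg in pH 8.0 K2HPO4/tween. Stabilised plasma was sampled up to 13 days and assayed by LC-MS (LLOQ 2 nM). Half-life came from non-compartmental analysis of individual animal profiles.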

For series [2], the target named is T3, Y2 receptor (UniProt P49146 1-381, limits assumed).
T3 sequence (looked up): T1 sequence (P49146 1-381)
Briefly: cell-based or functional assay.

Setting [3] is: Table 2, PP analogues, ACTOne HEK-293 cells, read-out: Y2 cAMP EC50.
[4] abbreviates: Table 2, PP analogues, ACTOne HEK-293 cells, read-out: Y4 cAMP EC50.

Where two headings read alike, the source gives them in different places. *1 amine or outer side, *2 acyl side, *3 side chain or, on linkers, in order; H or OH if unused. Where a SMILES comes first, the peptide text is derived from it. Where no end group is shown, it is not given here. Side-chain parts run from the residue outwards. The star is where a group is joined. C20 diacid = O=C(O)CCCCCCCCCCCCCCCCCCC(=O)*; C18 diacid = O=C(O)CCCCCCCCCCCCCCCCC(=O)*; γGlu = O=C(O)[C@H](CCC(=O)[*:2])N[*:1]; Trx = NC[C@H]1CC[C@H](C(=O)O)CC1; AEEA = NCCOCCOCC(=O)O

T2 sequence (P50391 whole entry): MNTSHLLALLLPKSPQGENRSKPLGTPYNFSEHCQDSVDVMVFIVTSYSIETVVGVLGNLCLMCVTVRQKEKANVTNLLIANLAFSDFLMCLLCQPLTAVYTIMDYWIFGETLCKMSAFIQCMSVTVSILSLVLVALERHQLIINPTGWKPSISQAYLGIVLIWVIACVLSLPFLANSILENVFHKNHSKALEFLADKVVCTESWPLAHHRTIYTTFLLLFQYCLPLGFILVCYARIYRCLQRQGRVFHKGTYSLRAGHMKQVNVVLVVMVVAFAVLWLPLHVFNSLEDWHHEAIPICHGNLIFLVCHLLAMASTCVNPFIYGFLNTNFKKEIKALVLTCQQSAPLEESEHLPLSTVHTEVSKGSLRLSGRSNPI

Consider `CC[C@H](C)[C@H](NC(=O)[C@H](Cc1ccc(O)cc1)NC(=O)[C@H](CCCNC(=N)N)NC(=O)[C@H](CCCCNC(=O)COCCOCCNC(=O)COCCOCCNC(=O)CC[C@H](NC(=O)[C@H]1CC[C@H](CNC(=O)CCCCCCCCCCCCCCCCCCC(=O)O)CC1)C(=O)O)NC(=O)[C@H](CC(C)C)NC(=O)[C@H](CC(=O)O)NC(=O)[C@H](C)NC(=O)[C@H](C)NC(=O)[C@H](Cc1ccc(O)cc1)NC(=O)[C@H](CCC(N)=O)NC(=O)[C@H](C)NC(=O)[C@H](CC(C)C)NC(=O)[C@H](CCC(N)=O)NC(=O)[C@H](CCC(=O)O)NC(=O)[C@@H]1CCCN1C(=O)[C@@H](NC(=O)[C@H](C)NC(=O)[C@H](CC(N)=O)NC(=O)[C@H](CC(=O)O)NC(=O)CNC(=O)[C@@H]1CCCN1C(=O)[C@H](Cc1ccc(O)cc1)NC(=O)[C@@H](NC(=O)[C@@H]1CCCN1C(=O)[C@H](CCC(=O)O)NC(=O)[C@H](CC(C)C)NC(=O)[C@@H]1CCCN1)C(C)C)[C@@H](C)O)C(=O)N[C@@H](CC(N)=O)C(=O)N[C@@H](CC(C)C)C(=O)N[C@@H](CC(C)C)C(=O)N[C@H](C(=O)N[C@@H](CCCNC(=N)N)C(=O)N1CCC[C@H]1C(=O)N[C@@H](CCCNC(=N)N)C(=O)N[C@@H](Cc1ccc(O)cc1)C(N)=O)[C@@H](C)O` [SEQ ID NO: 50, N-epsilon25-[2-(2-{2-[2-(2-{2-[(S)-4-Carboxy-4-({trans-4-[(19-carboxynonadecanoylamino)methyl]cyclohexanecarbonyl}amino)butyrylamino]-ethoxy}ethoxy)acetylamino]ethoxy}ethoxy)acetyl][Leu17,Lys25,Leu30]hPP2-36] (H-PLEPVYPGDNATPEQLAQYAADLK([AEEA-AEEA-γGlu-Trx-C20 diacid])RYINLLTRPRY-NH2), for which the EC50 at Y2 receptor [1] (setting [3]) and at Y4 receptor (setting [4]) was > 1000 nM in each case. In addition, in the series “in vivo” (10 nmol/kg), the half-life is 82 h.

Take `CC[C@H](C)[C@H](NC(=O)[C@H](Cc1ccc(O)cc1)NC(=O)[C@H](CCCNC(=N)N)NC(=O)[C@H](CCCNC(=N)N)NC(=O)[C@H](CC(C)C)NC(=O)[C@H](CC(=O)O)NC(=O)[C@H](C)NC(=O)[C@H](C)NC(=O)[C@H](Cc1ccc(O)cc1)NC(=O)[C@H](CCC(N)=O)NC(=O)[C@H](C)NC(=O)[C@H](CC(C)C)NC(=O)[C@H](CCC(N)=O)NC(=O)[C@H](CCC(=O)O)NC(=O)[C@@H]1CCCN1C(=O)[C@@H](NC(=O)[C@H](C)NC(=O)[C@H](CC(N)=O)NC(=O)[C@H](CC(=O)O)NC(=O)CNC(=O)[C@@H]1CCCN1C(=O)[C@H](Cc1ccc(O)cc1)NC(=O)[C@@H](NC(=O)[C@@H]1CCCN1C(=O)[C@H](CCC(=O)O)NC(=O)[C@H](CC(C)C)NC(=O)[C@@H]1CCCN1C(=O)COCCOCCNC(=O)COCCOCCNC(=O)CC[C@H](NC(=O)CCCCCCCCCCCCCCCCC(=O)O)C(=O)O)C(C)C)[C@@H](C)O)C(=O)N[C@@H](CC(N)=O)C(=O)N[C@@H](CC(C)C)C(=O)N[C@@H](CC(C)C)C(=O)N[C@H](C(=O)N[C@@H](CCCNC(=N)N)C(=O)N1CCC[C@H]1C(=O)N[C@@H](CCCNC(=N)N)C(=O)N[C@@H](Cc1ccc(O)cc1)C(N)=O)[C@@H](C)O` [SEQ ID NO: 55, N-alfa-[2-(2-{2-[2-(2-{2-[(S)-4-Carboxy-4-(17-carboxyheptadecanoylamino)butyrylamino]ethoxy}ethoxy)acetylamino]-ethoxy}ethoxy)acetyl][Leu17,Leu30]hPP2-36] ({C18 diacid-γGlu-AEEA-AEEA}-PLEPVYPGDNATPEQLAQYAADLRRYINLLTRPRY-NH2; C-terminus assumed): the EC50 was > 1000 nM on Y2 receptor [1] (setting [3]) and 1 nM at Y4 receptor (setting [4]). This molecule also gave a half-life in “in vivo” (7 nmol/kg) of 29 h.

As for `CC[C@H](C)[C@H](NC(=O)[C@H](Cc1ccc(O)cc1)NC(=O)[C@H](CCCNC(=N)N)NC(=O)[C@H](CCCNC(=N)N)NC(=O)[C@H](CC(C)C)NC(=O)[C@H](CC(=O)O)NC(=O)[C@H](C)NC(=O)[C@H](C)NC(=O)[C@H](Cc1ccc(O)cc1)NC(=O)[C@H](CCC(N)=O)NC(=O)[C@H](C)NC(=O)[C@H](CC(C)C)NC(=O)[C@H](CCC(N)=O)NC(=O)[C@H](CCC(=O)O)NC(=O)[C@@H]1CCCN1C(=O)[C@@H](NC(=O)[C@H](C)NC(=O)[C@H](CC(N)=O)NC(=O)[C@H](CC(=O)O)NC(=O)CNC(=O)[C@@H]1CCCN1C(=O)[C@H](Cc1ccc(O)cc1)NC(=O)[C@@H](NC(=O)[C@@H]1CCCN1C(=O)[C@H](CCC(=O)O)NC(=O)[C@H](CC(C)C)NC(=O)[C@@H]1CCCN1C(=O)COCCOCCNC(=O)COCCOCCNC(=O)CC[C@H](NC(=O)[C@H]1CC[C@H](CNC(=O)CCCCCCCCCCCCCCCCCCC(=O)O)CC1)C(=O)O)C(C)C)[C@@H](C)O)C(=O)N[C@@H](CC(N)=O)C(=O)N[C@@H](CC(C)C)C(=O)N[C@@H](CC(C)C)C(=O)N[C@H](C(=O)N[C@@H](CCCNC(=N)N)C(=O)N1CCC[C@H]1C(=O)N[C@@H](CCCNC(=N)N)C(=O)N[C@@H](Cc1ccc(O)cc1)C(N)=O)[C@@H](C)O` [SEQ ID NO: 56, N-alfa-[2-(2-{2-[2-(2-{2-[(S)-4-Carboxy-4-({trans-4-[(19-carboxynonadecanoylamino)methyl]cyclohexanecarbonyl}amino)butyrylamino]-ethoxy}ethoxy)acetylamino]ethoxy}ethoxy)acetyl][Leu17,Leu30]hPP2-36] ({C20 diacid-Trx-γGlu-AEEA-AEEA}-PLEPVYPGDNATPEQLAQYAADLRRYINLLTRPRY-NH2; C-terminus assumed), the EC50 on Y2 receptor [1] is > 1000 nM; on Y4 receptor, 4 nM. The same molecule gave a half-life in the series “in vivo” (in vivo, 6 nmol/kg) of 22 h.

In the case of {C20 diacid-Trx-γGlu-AEEA-AEEA}-NRYYASLRHYLNLVTRQRY (ends and bridges not checked), the “Y2 cAMP EC50” value in the series with Y2 receptor [2] came out at 97 nM.

The values above are taken from patent US20110275559A1, “Long-Acting Y2 and/or Y4 Receptor Agonists” (Novo Nordisk A/S, priority 2008, published 2011).
